Experimental data from the supplement of paper PMC11061612.

Experiments:
Assay in all cases: combination Emax (second highest fraction inhibited in the dose matrix, 72 h); higher = more inhibition; extreme values may be limits of the assay
[1] = system: BC-1 (B-Cell Non-Hodgkin's Lymphoma)
Procedure, shortened: (§1)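 After 24 hours at 37°C and 5% CO2 in 1536-well plates, cells in DMEM/F12 or RPMI plus 10% FBS received two-drug dose matrices for 72 hours. Viability came from CellTiter-Glo 2.0 luminescence and was scaled as inhibition, anchored at 0 by vehicle wells and at 1 by blank wells. Combination Emax is taken as the second-highest inhibition in the matrix, and Bliss excess as the observed combination effect less EA + EB − EA·EB, with EA and EB the single-agent effects.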

[2] = system: OVKATE (Ovarian Carcinoma)
Procedure, shortened: as §1

[3] = system: NTERA-2-cl-D1 (Other Solid Carcinomas)
Procedure, shortened: as §1

[4] = system: SK-MEL-24 (Melanoma)
Procedure, shortened: as §1

[5] = system: MDA-MB-175-VII (Breast Carcinoma)
Procedure, shortened: as §1

[6] = system: GCIY (Gastric Carcinoma)
Procedure, shortened: as §1

[7] = system: NCI-H1435 (Non-Small Cell Lung Carcinoma)
Procedure, shortened: as §1

[8] = system: SW1463 (Colorectal Carcinoma)
Procedure, shortened: as §1

[9] = system: C32 (Melanoma)
Procedure, shortened: as §1

[10] = system: NCI-H835 (Other Solid Carcinomas)
Procedure, shortened: as §1

[11] = system: NCI-H1975 (Lung Adenocarcinoma)
Procedure, shortened: as §1

[12] = system: SCC90 (Head and Neck Carcinoma)
Procedure, shortened: as §1

[13] = system: C2BBe1 (Colorectal Carcinoma)
Procedure, shortened: as §1

[14] = system: SK-N-DZ (Neuroblastoma)
Procedure, shortened: as §1

[15] = system: NCI-H1048 (Small Cell Lung Carcinoma)
Procedure, shortened: as §1

[16] = system: TK (B-Cell Non-Hodgkin's Lymphoma)
Procedure, shortened: as §1

[17] = system: SBC-5 (Small Cell Lung Carcinoma)
Procedure, shortened: as §1

[18] = system: HT-3 (Cervical Carcinoma)
Procedure, shortened: as §1

[19] = system: DK-MG (Glioblastoma)
Procedure, shortened: as §1

[20] = system: HT-144 (Melanoma)
Procedure, shortened: as §1

C=CCn1c(=O)c2cnc(Nc3ccc(N4CCN(C)CC4)cc3)nc2n1-c1cccc(C(C)(C)O)n1 [AZD1775] + Nc1ccn([C@@H]2O[C@H](CO)[C@@H](O)C2(F)F)c(=O)n1 [Gemcitabine] (first compound max 1 µM, partner max 0.3 µM)
combination Emax [1]: 0.995 | combination Emax [2]: 0.261 | combination Emax [3]: 0.614 | combination Emax [4]: 0.793 | combination Emax [5]: 0.456 | combination Emax [6]: 0.764 | combination Emax [7]: 0.345 | combination Emax [8]: 0.763 | combination Emax [9]: 0.701 | combination Emax [10]: 0.476

CN(CCO)CC[C@H](CSc1ccccc1)Nc1ccc(S(=O)(=O)NC(=O)c2ccc(N3CCC([C@@H](O)c4ccccc4-c4ccc(Cl)cc4)CC3)cc2)cc1S(=O)(=O)C(F)(F)F [AZD4320] + CS(=O)(=O)CCNCc1ccc(-c2ccc3ncnc(Nc4ccc(OCc5cccc(F)c5)c(Cl)c4)c3c2)o1 [Lapatinib] (first compound max 1 µM, 7x7, partner max 10 µM)
combination Emax [1]: 0.961 | combination Emax [2]: 0.677 | combination Emax [3]: 0.965 | combination Emax [4]: 0.942 | combination Emax [5]: 1 | combination Emax [6]: 0.956 | combination Emax [7]: 0.953 | combination Emax [8]: 0.974 | combination Emax [9]: 0.344 | combination Emax [10]: 0.982

Cc1c2c(nn1C)CSCc1cc(n(C)n1)CSc1cc(c3ccccc3c1)OCCCc1c(C(=O)O)n(C)c3c-2c(Cl)ccc13 [AZD5991] + CC(=O)O[C@H]1C(=O)[C@@]2(C)[C@H]([C@H](OC(=O)c3ccccc3)[C@]3(O)C[C@H](OC(=O)[C@H](O)[C@@H](NC(=O)c4ccccc4)c4ccccc4)C(C)=C1C3(C)C)[C@]1(OC(C)=O)CO[C@@H]1C[C@@H]2O [Paclitaxel] (first compound max 1 µM, 7x7, partner max 3 µM)
combination Emax [1]: 1 | combination Emax [2]: 0.217 | combination Emax [3]: 0.614 | combination Emax [4]: 0.692 | combination Emax [5]: 0.505 | combination Emax [6]: 0.686 | combination Emax [7]: 0.219 | combination Emax [8]: 0.527 | combination Emax [9]: 0.654 | combination Emax [10]: 0.453

Cc1c2c(nn1C)CSCc1cc(n(C)n1)CSc1cc(c3ccccc3c1)OCCCc1c(C(=O)O)n(C)c3c-2c(Cl)ccc13 [AZD5991] + CS(=O)(=O)CCNCc1ccc(-c2ccc3ncnc(Nc4ccc(OCc5cccc(F)c5)c(Cl)c4)c3c2)o1 [Lapatinib] (first compound max 1 µM, 7x7, partner max 10 µM)
combination Emax [1]: 1 | combination Emax [2]: 0.307 | combination Emax [3]: 0.487 | combination Emax [4]: 0.806 | combination Emax [5]: 0.973 | combination Emax [6]: 0.447 | combination Emax [7]: 0.219 | combination Emax [8]: 0.51 | combination Emax [9]: 0.228 | combination Emax [10]: 0.332

Cc1c2c(nn1C)CSCc1cc(n(C)n1)CSc1cc(c3ccccc3c1)OCCCc1c(C(=O)O)n(C)c3c-2c(Cl)ccc13 [AZD5991] + Nc1ccn([C@@H]2O[C@H](CO)[C@@H](O)C2(F)F)c(=O)n1 [Gemcitabine] (first compound max 1 µM, 7x7, partner max 0.3 µM)
combination Emax [1]: 1 | combination Emax [2]: 0.165 | combination Emax [3]: 0.536 | combination Emax [4]: 0.758 | combination Emax [5]: 0.48 | combination Emax [6]: 0.649 | combination Emax [7]: 0.317 | combination Emax [8]: 0.516 | combination Emax [9]: 0.762 | combination Emax [10]: 0.42

C[C@@H]1COCCN1c1cc(C2([S@](C)(=N)=O)CC2)nc(-c2ccnc3[nH]ccc23)n1 [AZD6738] + C1CC(C1)(C(=O)[O-])C(=O)[O-].N.N.[Pt+2] [Carboplatin] (first compound max 10 µM, 7x7, partner max 10 µM)
combination Emax [1]: 0.849 | combination Emax [2]: 0.211 | combination Emax [3]: 0.524 | combination Emax [4]: 0.36 | combination Emax [5]: 0.309 | combination Emax [6]: 0.643 | combination Emax [7]: 0.136 | combination Emax [8]: 0.409 | combination Emax [9]: 0.601 | combination Emax [10]: 0.322

C[C@@H]1COCCN1c1cc(C2([S@](C)(=N)=O)CC2)nc(-c2ccnc3[nH]ccc23)n1 [AZD6738] + Nc1ccn([C@@H]2O[C@H](CO)[C@@H](O)C2(F)F)c(=O)n1 [Gemcitabine] (first compound max 10 µM, 7x7, partner max 0.3 µM)
combination Emax [1]: 0.985 | combination Emax [2]: 0.345 | combination Emax [3]: 0.592 | combination Emax [4]: 0.841 | combination Emax [5]: 0.529 | combination Emax [6]: 0.774 | combination Emax [7]: 0.411 | combination Emax [8]: 0.792 | combination Emax [9]: 0.703 | combination Emax [10]: 0.446

C[C@@H](Nc1cc(F)cc(F)c1)c1cc(C(=O)N(C)C)cc2c(=O)cc(N3CCOCC3)oc12 [AZD8186] + CC(=O)c1c(C)c2cnc(Nc3ccc(N4CCNCC4)cn3)nc2n(C2CCCC2)c1=O [Palbociclib] (first compound max 10 µM, 7x7, partner max 10 µM)
combination Emax [1]: 0.93 | combination Emax [2]: 0.264 | combination Emax [3]: 0.343 | combination Emax [4]: 0.449 | combination Emax [5]: 0.456 | combination Emax [6]: 0.662 | combination Emax [7]: 0.361 | combination Emax [8]: 0.722 | combination Emax [9]: 0.342 | combination Emax [10]: 0.802

C[C@@H](Oc1cc(-c2cnn(C3CCNCC3)c2)cnc1N)c1c(Cl)ccc(F)c1Cl [Crizotinib] + CC1=C(C(=CC=C1)Cl)NC(=O)C2=CN=C(S2)NC3=CC(=NC(=N3)C)N4CCN(CC4)CCO [Dasatinib] (first compound max 10 µM, 7x7, partner max 2 µM)
combination Emax [1]: 0.94 | combination Emax [2]: 0.572 | combination Emax [3]: 0.956 | combination Emax [4]: 0.871 | combination Emax [5]: 0.0779 | combination Emax [6]: 0.863 | combination Emax [7]: 0.255 | combination Emax [8]: 0.133 | combination Emax [9]: 0.425 | combination Emax [10]: 0.854

C[C@@H](Oc1cc(-c2cnn(C3CCNCC3)c2)cnc1N)c1c(Cl)ccc(F)c1Cl [Crizotinib] + Cn1cnc2c(F)c(Nc3ccc(Br)cc3Cl)c(C(=O)NOCCO)cc21 [Selumetinib] (first compound max 10 µM, 7x7, partner max 10 µM)
combination Emax [1]: 0.838 | combination Emax [2]: 0.193 | combination Emax [3]: 0.742 | combination Emax [4]: 0.93 | combination Emax [5]: 0.267 | combination Emax [6]: 0.46 | combination Emax [7]: 0.136 | combination Emax [8]: 0.622 | combination Emax [9]: 0.995 | combination Emax [10]: 0.646

O=C(c1cc(Cc2n[nH]c(=O)c3ccccc23)ccc1F)N1CCN(C(=O)C2CC2)CC1 [Olaparib] + CC1(C)CCC(CN2CCN(c3ccc(C(=O)NS(=O)(=O)c4ccc(NCC5CCOCC5)c([N+](=O)[O-])c4)c(Oc4cnc5[nH]ccc5c4)c3)CC2)=C(c2ccc(Cl)cc2)C1 [Venetoclax] (first compound max 10 µM, 7x7, partner max 1 µM)
combination Emax [1]: 0.252 | combination Emax [2]: 0.122 | combination Emax [3]: 0.383 | combination Emax [4]: 0.0984 | combination Emax [5]: 0.297 | combination Emax [6]: 0.119 | combination Emax [7]: 0.117 | combination Emax [8]: 0.229 | combination Emax [9]: 0.145 | combination Emax [10]: 0.169

O=C(c1cc(Cc2n[nH]c(=O)c3ccccc23)ccc1F)N1CCN(C(=O)C2CC2)CC1 [Olaparib] + CN(CC[C@H](CSC1=CC=CC=C1)NC2=C(C=C(C=C2)S(=O)(=O)NC(=O)C3=CC=C(C=C3)N4CCC(CC4)[C@H](C5=CC=CC=C5C6=CC=C(C=C6)Cl)O)S(=O)(=O)C(F)(F)F)CCO [AZD4320] (first compound max 10 µM, 7x7, partner max 1 µM)
combination Emax [1]: 0.348 | combination Emax [2]: 0.168 | combination Emax [3]: 0.689 | combination Emax [4]: 0.177 | combination Emax [5]: 0.389 | combination Emax [6]: 0.643 | combination Emax [7]: 0.729 | combination Emax [8]: 0.333 | combination Emax [9]: 0.253 | combination Emax [10]: 0.951

O=C(c1cc(Cc2n[nH]c(=O)c3ccccc23)ccc1F)N1CCN(C(=O)C2CC2)CC1 [Olaparib] + COc1nnc2ccc(N3CCC(c4ccc(OCCN5CCN(C)C(=O)[C@H]5C)cc4)CC3)nn12 [AZD5153] (first compound max 10 µM, 7x7, partner max 1 µM)
combination Emax [1]: 0.873 | combination Emax [2]: 0.264 | combination Emax [3]: 0.649 | combination Emax [4]: 0.419 | combination Emax [5]: 0.316 | combination Emax [6]: 0.487 | combination Emax [7]: 0.223 | combination Emax [8]: 0.561 | combination Emax [9]: 0.22 | combination Emax [10]: 0.403

O=C(c1cc(Cc2n[nH]c(=O)c3ccccc23)ccc1F)N1CCN(C(=O)C2CC2)CC1 [Olaparib] + Cc1c2c(nn1C)CSCc1cc(n(C)n1)CSc1cc(c3ccccc3c1)OCCCc1c(C(=O)O)n(C)c3c-2c(Cl)ccc13 [AZD5991] (first compound max 10 µM, 7x7, partner max 1 µM)
combination Emax [1]: 1 | combination Emax [2]: 0.0781 | combination Emax [3]: 0.531 | combination Emax [4]: 0.0746 | combination Emax [5]: 0.281 | combination Emax [6]: 0.181 | combination Emax [7]: 0.117 | combination Emax [8]: 0.192 | combination Emax [9]: 0.0885 | combination Emax [10]: 0.149

CC1(C)CCC(CN2CCN(c3ccc(C(=O)NS(=O)(=O)c4ccc(NCC5CCOCC5)c([N+](=O)[O-])c4)c(Oc4cnc5[nH]ccc5c4)c3)CC2)=C(c2ccc(Cl)cc2)C1 [Venetoclax] + Cn1cnc2c(F)c(Nc3ccc(Br)cc3Cl)c(C(=O)NOCCO)cc21 [Selumetinib] (first compound max 1 µM, 7x7, partner max 3 µM)
combination Emax [11]: 0.28 | combination Emax [1]: 0.408 | combination Emax [2]: 0.217 | combination Emax [12]: 0.726 | combination Emax [3]: 0.742 | combination Emax [4]: 0.553 | combination Emax [13]: 0.329 | combination Emax [14]: 0.246 | combination Emax [5]: 0.255 | combination Emax [6]: 0.514 | combination Emax [7]: 0.156 | combination Emax [8]: 0.352 | combination Emax [15]: 0.153 | combination Emax [9]: 0.941 | combination Emax [16]: 0.981 | combination Emax [17]: 0.18 | combination Emax [18]: 0.118 | combination Emax [19]: 0.362 | combination Emax [20]: 0.654
